Data published in PubChem BioAssay AID2060502 (Molecular Pharmacology Branch, DTP, NCI, 2025).
Where “and” joins values, the source holds several entries; their conditions need not be identical. Equal values may be shown once.

System: 885724-159-R-J1-PDC complex spheroid viability
Experiment: Anticancer human tumor 885724-159-R-J1-PDC patient-derived pancreatic adenocarcinoma cell line growth inhibition [GQUAD]
Settings: for viability, T/C: stronger effect = lower value; active = viability on the fitted dose curve at most 10% of control; inactive = the rest
Text: DNA G-quadruplex Stabilizer Agents in Combinations in Complex Spheroids
A high-throughput screen of multi-cell type tumor spheroids was designed to identify active combinations of DNA G-quadruplex stabilizer agents and targeted small molecules. Complex spheroids include a stromal component modeled by human endothelial cells (HUVEC) and fibroblasts modeled by human mesenchymal stem cells (MSCs). The concentration ranges selected for each drug and investigational agent were based upon clinically achievable concentrations if the clinical Cmax of the agent was known.
Compounds. The drugs and investigational agents: pidnarulex (CX-5461; NSC782164), APTO-253 (NSC789042), BRACO-19 (NSC847499), peposertib (NSC802822), ceralasertib (NSC780249), elimusertib (NSC800525), camonsertib (NSC841442), AZD-1390 (NSC803789), olaparib (NSC753686), talazoparib (NSC767125), ART-558 (NSC835418), sotorasib (NSC818433), MRTX-1133 (NSC836407), SN-38 (NSC673596), topotecan (NSC609699), etoposide (NSC141540), doxorubicin (NSC123127), gemcitabine (NSC613327), 5-fluorouracil (NSC19893), paclitaxel (NSC125973), vemurafenib (NSC761431), panobinostat (NSC761190), R-306465 (JNJ-16241199; NSC773264), adavosertib (NSC754352), TP-3654 (NSC805149), carboplatin (NSC241240), KSQ-4279 (NSC840948), and staurosporine (NSC755774) were obtained from the National Cancer Institute (NCI) Developmental Therapeutics Program Chemical Repository (34). The FDA-approved anticancer drug set is available from the NCI Developmental Therapeutics Program. […] The stock solutions were prepared in dimethyl sulfoxide (DMSO, Sigma-Aldrich, St. Louis, MO, cat. D2650) at 800-fold the tested concentration and stored at -70 degrees C prior to their use. All drugs and investigational agents were tested over a range starting from a high concentration at or near the clinical Cmax and decreasing in half-log increments. If the clinical Cmax for an agent had not been determined, the highest concentration tested was 10 microM.
2.3 Cell Culture. All cells were maintained in an incubator at 37 degrees C and 5% CO2 with 95% humidity. The PDC lines were cultured according to standard operating procedures established by the NCI PDMR. All PDCs were thawed and cultured in Matrigel-coated flasks prepared with a working solution of 1X Ham's F-12 nutrient mix, without supplementation (Invitrogen, cat. 11765054), 100 U/mL penicillin-streptomycin (Invitrogen, cat. 15140122), and 2.5% Matrigel (Corning Inc., cat. 354248) for the first three passages. The 857933-349-R-J2-PDC line was cultured in 6C/Colon 1B media, which includes advanced DMEM/F-12 (Thermo Fisher Scientific, cat. 12634028), 10 mM HEPES (Thermo Fisher Scientific, cat. 15630080), 1X GlutaMAX supplement (Thermo Fisher Scientific, cat. 35050061), 0.1 mg/mL primocin (InvivoGen, cat. ant-pm-2), 10% defined fetal bovine serum, heat inactivated (HyClone Laboratories Inc., cat. SH30070.03HI), 50% L-WRN conditioned media (ATCC, cat. CRL-3276), 1.25 mM N-Acetyl-L-cysteine (Sigma-Aldrich, cat. A9165), 10 mM nicotinamide (Sigma-Aldrich, cat. N0636), 1X B-27 supplement (Thermo Fisher Scientific, cat. 17504044), 1X N-2 supplement (Thermo Fisher Scientific, cat. 17502048), 10 microM Y-27632 dihydrochloride (Tocris Bioscience, cat. 1254), and 50 ng/mL human EGF recombinant protein (Thermo Fisher Scientific, cat. PHG0311). The 485176-168-R4-J1-PDC line was cultured in Panc media, which includes all 6C/Colon 1B media components plus 100 ng/mL human FGF-10 (Thermo Fisher Scientific, cat. 100-26), 500 nM SB-431542 (Selleckchem, cat. S1067), and gastrin (Tocris, cat. 3006).
[…]
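Also: spheroids exposed to agents for seven days before readout.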
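For viability, T/C in this document: percent of vehicle control viability where 100% = DMSO wells.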

C=CC(=O)N1CCN(c2nc(=O)n(-c3c(C)ccnc3C(C)C)c3nc(-c4c(O)cccc4F)c(F)cc23)C(C)C1 (stereo not drawn) + Cc1[nH]c2ccc(F)cc2c1-c1nc2c3cccnc3c3ncccc3c2[nH]1
inactive: viability, T/C (second compound 0.0316 µM, first compound 0.0316 µM) 97.3% | viability, T/C (second compound 0.0316 µM, first compound 0.1 µM) 106% | viability, T/C (second compound 0.0316 µM, first compound 0.316 µM) 98.4% | viability, T/C (second compound 0.0316 µM, first compound 1 µM) 104% | viability, T/C (second compound 0.0316 µM, first compound 3.16 µM) 98% | viability, T/C (second compound 0.0316 µM, first compound 10 µM) 97.2% | viability, T/C (second compound 0.1 µM, first compound 0.0316 µM) 105% | viability, T/C (second compound 0.1 µM, first compound 0.1 µM) 97.6% | viability, T/C (second compound 0.1 µM, first compound 0.316 µM) 98.7% | viability, T/C (second compound 0.1 µM, first compound 1 µM) 106% | viability, T/C (second compound 0.1 µM, first compound 3.16 µM) 109% | viability, T/C (second compound 0.1 µM, first compound 10 µM) 99.2% | viability, T/C (second compound 0.316 µM, first compound 0.0316 µM) 95.5% | viability, T/C (second compound 0.316 µM, first compound 0.1 µM) 105% | viability, T/C (second compound 0.316 µM, first compound 0.316 µM) 92.8% | viability, T/C (second compound 0.316 µM, first compound 1 µM) 94.3% | viability, T/C (second compound 0.316 µM, first compound 3.16 µM) 122% | viability, T/C (second compound 0.316 µM, first compound 10 µM) 88.6% | viability, T/C (second compound 1 µM, first compound 0.0316 µM) 73.7% | viability, T/C (second compound 1 µM, first compound 0.1 µM) 71.9% | viability, T/C (second compound 1 µM, first compound 0.316 µM) 69.7% | viability, T/C (second compound 1 µM, first compound 1 µM) 73.6% | viability, T/C (second compound 1 µM, first compound 3.16 µM) 78.7% | viability, T/C (second compound 1 µM, first compound 10 µM) 73.7% | viability, T/C (second compound 3.16 µM, first compound 0.0316 µM) 45.9% | viability, T/C (second compound 3.16 µM, first compound 0.1 µM) 29.1% | viability, T/C (second compound 3.16 µM, first compound 0.316 µM) 33.4% | viability, T/C (second compound 3.16 µM, first compound 1 µM) 38.5% | viability, T/C (second compound 3.16 µM, first compound 3.16 µM) 33.4% | viability, T/C (second compound 3.16 µM, first compound 10 µM) 27.8% | viability, T/C (second compound 10 µM, first compound 0.0316 µM) 64.3% | viability, T/C (second compound 10 µM, first compound 0.1 µM) 70.3% | viability, T/C (second compound 10 µM, first compound 0.316 µM) 72.1% | viability, T/C (second compound 10 µM, first compound 1 µM) 79.2% | viability, T/C (second compound 10 µM, first compound 3.16 µM) 73% | viability, T/C (second compound 10 µM, first compound 10 µM) 65.9%
> 10 µM: IC50 (curve of first compound, second compound 0.0316 µM) | IC50 (curve of first compound, second compound 0.1 µM) | IC50 (curve of first compound, second compound 0.316 µM) | IC50 (curve of first compound, second compound 1 µM) | IC50 (curve of first compound, second compound 10 µM)
< 0.0316 µM: IC50 (curve of first compound, second compound 3.16 µM)

O=C(c1cc(Cc2n[nH]c(=O)c3ccccc23)ccc1F)N1CCN(C(=O)C2CC2)CC1
> 10 µM: IC50 (curve of compound)
inactive: viability, T/C (compound 0.0316 µM) 99.2% and 89.1% and 108% | viability, T/C (compound 0.1 µM) 101% and 98.7% and 92.9% | viability, T/C (compound 0.316 µM) 95.6% and 92.5% and 106% | viability, T/C (compound 1 µM) 87% and 108% and 83.3% | viability, T/C (compound 3.16 µM) 90.5% and 89.9% and 99.1% | viability, T/C (compound 10 µM) 97.6% and 90.9% and 82.7%

CC(=O)O[C@H]1C(=O)[C@@]2(C)[C@H]([C@H](OC(=O)c3ccccc3)[C@]3(O)C[C@H](OC(=O)[C@H](O)[C@@H](NC(=O)c4ccccc4)c4ccccc4)C(C)=C1C3(C)C)[C@]1(OC(C)=O)CO[C@@H]1C[C@@H]2O
> 10 µM: IC50 (curve of compound)
inactive: viability, T/C (compound 0.0316 µM) 100% and 92% and 97.8% | viability, T/C (compound 0.1 µM) 66.6% and 80.5% and 89.4% | viability, T/C (compound 0.316 µM) 82.2% and 93.6% and 90.7% | viability, T/C (compound 1 µM) 83.6% and 86.1% and 96.7% | viability, T/C (compound 3.16 µM) 89.6% and 91% and 100% | viability, T/C (compound 10 µM) 93% and 104% and 107%

CC1COCCN1c1cc(-c2ccnn2C)c2ccnc(-c3ccn[nH]3)c2n1 (stereo not drawn)
inactive: viability, T/C (compound 0.0316 µM) 104% and 98% and 79.1% | viability, T/C (compound 0.1 µM) 93% and 80.3% and 83.4% | viability, T/C (compound 0.316 µM) 83.2% and 68.7% and 75% | viability, T/C (compound 1 µM) 69.1% and 67.7% and 69.3% | viability, T/C (compound 3.16 µM) 58.6% and 51.1% and 45.9% | viability, T/C (compound 10 µM) 45.6% and 52.2% and 42.1%
6.76 µM and > 10 µM and 2.65 µM: IC50 (curve of compound)
